Measured values: US6908935B2, “Calcium receptor modulating agents” (Amgen Inc., priority 2002, dated 2005)

These molecules were tested against T1, human parathyroid cell Ca^2+ receptor (hPCaR) (Homo sapiens, UniProt P41180) (assay: [Ca2+]i measurement with fluo-3 in HEK 293 4.0-7 cells stably transfected with hPCaR). Settings: fluo-3 fluorescence (485/530 nm), effect on [Ca^2+]i.
T1 construct: expressed in transfected cells
T1 sequence (P41180 20-1078): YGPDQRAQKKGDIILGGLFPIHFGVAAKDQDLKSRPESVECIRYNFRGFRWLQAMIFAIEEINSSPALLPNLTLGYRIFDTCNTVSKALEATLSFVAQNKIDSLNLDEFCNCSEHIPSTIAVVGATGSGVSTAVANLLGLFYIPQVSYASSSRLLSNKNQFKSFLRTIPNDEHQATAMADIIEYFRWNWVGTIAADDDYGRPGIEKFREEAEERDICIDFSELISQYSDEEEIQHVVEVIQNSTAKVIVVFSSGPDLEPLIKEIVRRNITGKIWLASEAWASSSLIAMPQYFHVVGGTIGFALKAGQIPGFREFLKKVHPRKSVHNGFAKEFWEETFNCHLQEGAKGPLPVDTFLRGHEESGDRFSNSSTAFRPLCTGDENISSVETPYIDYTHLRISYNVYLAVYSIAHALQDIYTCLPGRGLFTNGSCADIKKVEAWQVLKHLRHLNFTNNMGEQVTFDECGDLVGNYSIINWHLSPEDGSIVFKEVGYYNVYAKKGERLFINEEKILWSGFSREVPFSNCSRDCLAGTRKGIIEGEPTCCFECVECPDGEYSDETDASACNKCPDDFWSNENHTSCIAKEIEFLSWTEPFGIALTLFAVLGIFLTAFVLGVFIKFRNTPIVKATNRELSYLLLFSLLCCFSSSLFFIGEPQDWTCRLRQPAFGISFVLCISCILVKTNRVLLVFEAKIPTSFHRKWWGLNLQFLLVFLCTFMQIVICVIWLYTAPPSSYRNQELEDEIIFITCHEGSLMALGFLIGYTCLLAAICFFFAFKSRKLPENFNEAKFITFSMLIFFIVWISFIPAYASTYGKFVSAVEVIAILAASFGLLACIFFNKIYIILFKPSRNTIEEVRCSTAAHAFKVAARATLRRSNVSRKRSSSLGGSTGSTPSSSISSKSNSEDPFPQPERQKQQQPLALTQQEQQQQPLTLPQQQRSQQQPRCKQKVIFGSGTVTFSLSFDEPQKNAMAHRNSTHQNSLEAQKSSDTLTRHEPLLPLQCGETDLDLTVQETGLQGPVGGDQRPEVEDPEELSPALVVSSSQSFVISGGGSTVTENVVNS
Assay type: cell-based
Procedure: The activities of the compounds of the present invention on calcium receptors were measured. In one embodiment, the measurement was performed in accordance with the method described in Example 4 of Nemeth et al., PCT/US95/13704 (International Publication No. WO96/12697) herein incorporated by reference.
A 4.0-kb NotI-HindIII fragment of the human parathyroid cell Ca^2+ receptor (hPCaR) cDNA was subcloned into the mammalian expression vector pCEP4 (Invitrogen) containing the hygromycin-resistant gene as a selectable marker. This plasmid was transfected into HEK 293 cells by calcium phosphate precipitation. Transfected cells were grown in Dulbecco's modified Eagle's medium containing 10% fetal bovine serum and hygromycin (200 μg/mL). Hygromycin-resistant colonies were subcloned and assayed for hPCaR mRNA by solution hybridization using a ^32P-labeled RNA probe complementary to the (4.0 kb) hPCaR sequence (Garrett, et al., J. Biol. Chem. 270, 12919-12925 (1995)). Clone 7 was used to assess the effects of compounds on [Ca^2+]i. This stably transfected cell line is termed HEK 293 4.0-7. For measurements of [Ca^2+]i, the cells were recovered from tissue culture flasks by brief treatment with 0.02% EDTA and then washed and resuspended in PCB containing 1 mM CaCl2 and 0.1% Bovine Serum Albumin (“BSA”). The cells were loaded with fluo-3 by incubation for 30 min at 37° C., with parathyroid cell buffer (126 mM NaCl, 4 mM KCl, 1 mM MgSO4, 0.7 mM K2HPO/KH2PO4, 20 mM HEPES.NaOH (pH 7.45)) containing 0.5% BSA in lmM CaCl2 and 2 μM fluo-3 acetoxymethyl ester. The cells were subsequently washed, each test compound was added to the cells and the fluorescence was recorded by using excitation and emission wavelengths of 485 and 530 nm, respectively.

SMILES	EC50 [µM]
CCNC(=O)Nc1ccc(CN[C@H](C)c2cccc3ccccc23)cc1-c1ccc(OC)cc1 [N-ethyl-N′-(4′-(methyloxy)-5-((((1R)-1-(1-naphthalenyl)ethyl)amino)methyl)-1,1′-biphenyl-2-yl)urea]	≤ 10
COc1cccc([C@@H](C)NCc2cccc(-c3ccc(NC(C)=O)nc3)c2)c1 [N-(5-(3-((((1R)-1-(3-(methyloxy)phenyl)ethyl)amino)methyl)phenyl)-2-pyridinyl)acetamide]	≤ 10
CC(=O)Nc1cccc(-c2cccc(CN[C@H](C)c3cccc4ccccc34)c2)c1 [N-(3′-((((1R)-1-(1-naphthalenyl)ethyl)amino)methyl)-1,1′-biphenyl-3-yl)acetamide]	≤ 10
COc1cccc([C@@H](C)NCc2ccc(OC)c(-c3ccc(C(=O)N(C)C)cc3)c2)c1 [N,N-dimethyl-2′-(methyloxy)-5′-((((1R)-1-(3-(methyloxy)phenyl)ethyl)amino)methyl)-1,1′-biphenyl-4-carboxamide]	≤ 10
COc1ccc(CN[C@H](C)c2cccc3ccccc23)cc1-c1coc(C)n1 [(1R)-N-((3-(2-methyl-1,3-oxazol-4-yl)-4-(methyloxy)phenyl)methyl)-1-(1-naphthalenyl)ethanamine]	≤ 10
COc1ccc(CN[C@H](C)c2cccc3ccccc23)cc1-c1ccc2c(c1)ncn2C [(1R)-N-((3-(1-methyl-1H-benzimidazol-5-yl)-4-(methyloxy)phenyl)methyl)-1-(1-naphthalenyl)ethanamine]	≤ 10
COc1ccc(CN[C@H](C)c2ccccc2)cc1-c1ccc(OCC2CCCO2)nc1 (stereo partly drawn) [(1R)-N-((4-(methyloxy)-3-(6-((tetrahydro-2-furanylmethyl)oxy)-3-pyridinyl)phenyl)methyl)-1-phenylethanamine]	≤ 10
COc1ccc(CN[C@H](C)c2ccccc2)cc1-c1cccs1 [(1R)-N-((4-(methyloxy)-3-(2-thienyl)phenyl)methyl)-1-phenylethanamine]	≤ 10
COc1ccc([C@@H](C)NCc2ccc(OC)c(-c3ccc(F)cc3)c2)cc1 [(1R)-N-((4′-fluoro-6-(methyloxy)-1,1′-biphenyl-3-yl)methyl)-1-(4-(methyloxy)phenyl)ethanamine]	≤ 10
COc1cccc([C@@H](C)NCc2ccc(OC)c(-c3ccc(=O)n(C)c3)c2)c1 [1-methyl-5-(2-(methyloxy)-5-((((1R)-1-(3-(methyloxy)phenyl)ethyl)amino)methyl)phenyl)-2(1H)-pyridinone]	≤ 10
COc1cccc([C@@H](C)NCc2ccc(OC)c(-c3ccc4ccn(C)c4c3)c2)c1 [(1R)-N-((3-(1-methyl-1H-indol-6-yl)-4-(methyloxy)phenyl)methyl)-1-(3-(methyloxy)phenyl)ethanamine]	≤ 10
COc1ccc(CN[C@H](C)c2cccc3ccccc23)cc1-c1ccccn1 [(1R)-N-((4-(methyloxy)-3-(2-pyridinyl)phenyl)methyl)-1-(1-naphthalenyl)ethanamine]	≤ 10
COc1ccc(-c2cccc(CN[C@H](C)c3cccc4ccccc34)c2)nn1 [(1R)-N-((3-(6-(methyloxy)-3-pyridazinyl)phenyl)methyl)-1-(1-naphthalenyl)ethanamine]	≤ 10
COc1ccc(CN[C@H](C)c2ccc(C)cc2)cc1-c1ccc(F)cc1 [(1R)-N-((4′-fluoro-6-(methyloxy)-1,1′-biphenyl-3-yl)methyl)-1-(4-methylphenyl)ethanamine]	≤ 10
COc1ccc(CN[C@H](C)c2ccccc2)cc1-c1ccc2c(c1)OC(F)(F)O2 [(1R)-N-((3-(2,2-difluoro-1,3-benzodioxol-5-yl)-4-(methyloxy)phenyl)methyl)-1-phenylethanamine]	≤ 10
COc1ccc(CN[C@H](C)c2cccc3ccccc23)cc1-c1ccc(C(N)=O)cc1 [2′-(methyloxy)-5′-((((1R)-1-(1-naphthalenyl)ethyl)amino)methyl)-1,1′-biphenyl-4-carboxamide]	≤ 10
COc1cccc([C@@H](C)NCc2ccc(OC)c(-c3csc(N4CCCCC4)n3)c2)c1	≤ 10
COc1cccc([C@@H](C)NCc2ccc(OC)c(-c3csc(C)n3)c2)c1 [(1R)-N-((4-(methyloxy)-3-(2-methyl-1,3-thiazol-4-yl)phenyl)methyl)-1-(3-(methyloxy)phenyl)ethanamine]	≤ 10

Results, then the molecule that gave them:

EC50 [µM]	SMILES
≤ 10	COc1ccc(CN[C@H](C)c2ccccc2)cc1N1CCCC1 [(1R)-N-((4-(methyloxy)-3-(1-pyrrolidinyl)phenyl)methyl)-1-phenylethanamine]
≤ 10	COc1ccc(CN[C@H](C)c2ccccc2)cc1-c1cccnc1OCC(F)(F)F [(1R)-N-((4-(methyloxy)-3-(2-((2,2,2-trifluoroethyl)oxy)-3-pyridinyl)phenyl)methyl)-1-phenylethanamine]
≤ 10	COc1ccc(CNC(C)c2cc(F)cc(F)c2)cc1-c1ccc(C(F)(F)F)cc1 (stereo not drawn) [1-(3,5-difluorophenyl)-N-((6-(methyloxy)-4′-(trifluoromethyl)-1,1′-biphenyl-3-yl)methyl)ethanamine]
≤ 10	C[C@@H](NCc1ccc(I)c(-c2ccc(C(F)(F)F)cc2)c1)c1ccccc1 [(1R)-N-((6-iodo-4′-(trifluoromethyl)-1,1′-biphenyl-3-yl)methyl)-1-phenylethanamine]
≤ 10	COc1ccc(-c2cc(CN[C@H](C)c3cccc4ccccc34)ccc2NS(C)(=O)=O)cc1 [N-(4′-(methyloxy)-5-((((1R)-1-(1-naphthalenyl)ethyl)amino)methyl)-1,1′-biphenyl-2-yl)methanesulfonamide]
≤ 10	COc1ccc(CN[C@H](C)c2ccccc2)cc1-c1csc(N2CCCCC2)n1 [(1R)-N-((4-(methyloxy)-3-(2-(1-piperidinyl)-1,3-thiazol-4-yl)phenyl)methyl)-1-phenylethanamine]
≤ 10	COc1ccc(CN[C@H](C)c2ccc(C)cc2)cc1-c1ccsc1 [(1R)-N-((4-(methyloxy)-3-(3-thienyl)phenyl)methyl)-1-(4-methylphenyl)ethanamine]
≤ 10	COc1ccc(CN[C@H](C)c2ccc(C)cc2)cc1-c1cnc(N)nc1 [5-(2-(methyloxy)-5-((((1R)-1-(4-methylphenyl)ethyl)amino)methyl)phenyl)-2-pyrimidinamine]
≤ 10	CCOc1ccc(-c2cc(CN[C@H](C)c3cccc4ccccc34)ccc2OC)cn1 [(1R)-N-((3-(6-(ethyloxy)-3-pyridinyl)-4-(methyloxy)phenyl)methyl)-1-(1-naphthalenyl)ethanamine]
≤ 10	COc1ccc(CNC(C)c2ccc(F)cc2)cc1-c1ccc(C(F)(F)F)cc1 (stereo not drawn) [1-(4-fluorophenyl)-N-((6-(methyloxy)-4′-(trifluoromethyl)-1,1′-biphenyl-3-yl)methyl)ethanamine]
≤ 10	COc1ccc(CN[C@H](C)c2ccccc2)cc1-c1ccc2c(c1)nc(C(F)(F)F)n2C [(1R)-N-((4-(methyloxy)-3-(1-methyl-2-(trifluoromethyl)-1H-benzimidazol-5-yl)phenyl)methyl)-1-phenylethanamine]
≤ 10	COc1ccc(CN[C@H](C)c2cccc3ccccc23)cc1-c1ccc(=O)n(C)c1 [1-methyl-5-(2-(methyloxy)-5-((((1R)-1-(1-naphthalenyl)ethyl)amino)methyl)phenyl)-2-(1H)-pyridinone]
